According to the METLIN SMRT retention time set (Domingo-Almenara et al. 2019):

Assay: gradient 5% acetonitrile 3 min, to 50% in 2 min, to 85% in 15 min, held 3 min, 100 µL/min
Conditions: column: Zorbax Extend-C18 2.1 x 50 mm; eluents: water / acetonitrile, 0.1% formic acid
In short: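 In both positive and negative ionization mode, a quadrupole time-of-flight mass spectrometer coupled to HPLC analyzed pure standards run in mixtures of ~100 molecules. The Zorbax Extend-C18 column (2.1 × 50 mm, 1.8 μm) was operated at 100 μL/min with water and acetonitrile, each containing 0.1% formic acid. The dead volume was 40 μL and the dwell volume 900 μL. Retention time came from adduct peaks that were computationally picked and individually inspected by hand.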

| Structure (SMILES) | RP-LC retention time [s] |
| --- | --- |
| CCOc1cccc(CNC(=O)C2CCc3nc(N4CCOCC4)ncc3C2)c1 (stereo not drawn) | 743 |
| CCCOc1nc2ccccc2nc1N1CCCC(C(=O)NCc2ccc(C)cc2)C1 (stereo not drawn) | 1240 |
| CCOc1cc(CNC(=O)c2nc(N3CCOCC3)c3ccccc3n2)ccc1OC | 660 |
| O=C(NCC1CCN(C(=O)COc2ccccc2)CC1)Nc1cccc(C(F)(F)F)c1 | 840 |
| CN(C)c1ncncc1N1CCC(C(=O)NCCC2=CCCCC2)CC1 | 679 |
| CCCCn1cc(S(=O)(=O)NCc2ccccc2C(F)(F)F)c2cccnc21 | 1040 |
| Cc1cc(C)n(-c2ccnc(N3CCN(C(C)C)CC3)n2)n1 | 610 |
| Cc1cc(OCC(=O)N2CCCC2)nc(-c2ccc(Cl)cc2)n1 | 937 |
| COc1ccc(NC(=O)Cc2c(C)nn(-c3nc(C)cs3)c2C)cc1 | 873 |
| Cn1nc(-c2nc(-c3ccc(F)cc3)no2)c2c1CCN(C(=O)NC1CCCCC1)C2 | 979 |
| Cc1oc(C2CCN(S(=O)(=O)c3cccc(Cl)c3)CC2)nc1C(=O)N(C)C | 864 |
| O=C(CSc1ccc(N2CCCC(C(=O)NC3CC3)C2)nn1)Nc1cccc(Br)c1 (stereo not drawn) | 664 |
| CCOc1ccccc1-c1nc(-c2ccc3ncn(C)c3c2)no1 | 747 |
| O=C1NCCOCCN(S(=O)(=O)c2cccc(F)c2)[C@H]2CCC[C@@H]12 | 748 |
| CS(=O)(=O)N1CCCC1C(=O)Nc1nc(-c2cc(Cl)sc2Cl)cs1 (stereo not drawn) | 993 |
| CCN1C(=O)C2(CCN(C(=O)C3CC3)CC2)c2ccccc21 | 779 |
| COC[C@@H]1CN(C(=O)Cn2nc(C(F)(F)F)cc2C)C[C@H]1C(N)=O | 622 |
| CCCN(C(=O)Nc1ccccc1C(=O)OCC)c1nc(-c2ccc(C3CCCCC3)cc2)cs1 | 630 |
| CCn1c(C(=O)N2CCN(c3cccc(C)c3)C(C)C2)cc2sccc21 (stereo not drawn) | 1050 |
| CCc1cccc(NS(=O)(=O)c2cn(CC)c3ncccc23)c1 | 937 |
| Cc1nnc(-c2ccc3ccn(CC(=O)N4CCN(C(=O)c5ccco5)CC4)c3c2)o1 | 674 |
| O=C1NC2(CCN(C(=O)c3ccccc3)CC2)N=C1c1ccc(Cl)cc1 | 842 |
| CCOc1ccc(OCC)c(NC(=O)CN2C(=O)C(C)(C)c3ccccc32)c1 | 1090 |
| CCCN1C(=O)COc2ccc(-c3noc(-c4ccccc4Cl)n3)cc21 | 1240 |
| COc1ccc(NC(=O)N2CCN(c3nc4cccnc4s3)CC2)cc1 | 690 |

| Structure (SMILES) | RP-LC retention time [s] |
| --- | --- |
| CCCc1cc(N2CCN(C(=O)Cc3ccsc3)CC2)nc2nnc(CC)n12 | 649 |
| CC(C)C(=O)N1CCc2c(c(C(=O)N3CCC(C(=O)NC4CCCCCC4)CC3)nn2C)C1 | 698 |
| CCOC(=O)c1nc(NCc2ccc3c(c2)OCO3)c2ccccc2n1 | 719 |
| COc1ccc(NC(=O)c2cn(-c3cc(N4CCC(C)CC4)ncn3)cn2)c(OC)c1 | 1150 |
| CNC(=O)C1CCCN(c2nc3ncn(CC(=O)Nc4cccc(C(F)(F)F)c4)c(=O)c3s2)C1 (stereo not drawn) | 704 |
| CC1(C)CC(O)CC(C)(C)N1[O-] | 578 |
| Cc1ccc(NC(=O)Cn2ncc3c(c2=O)N(C)C(=O)CS3)c(Br)c1 | 714 |
| COc1cccc(CNC(=O)COc2cc(C)nc(N3CCN(c4ccccc4)CC3)n2)c1OC | 783 |
| CCn1c(=O)c(N2CCCC(C(=O)N3CCN(c4cccc(OC)c4)CC3)C2)nc2ccccc21 (stereo not drawn) | 1100 |
| CCCCn1c(=O)c2ccccc2n(Cc2nc(-c3ccccc3Br)no2)c1=O | 1170 |
| CCn1cc(-c2ccc(C)cc2)cc1C(=O)NCC1CCCO1 (stereo not drawn) | 614 |
| O=C1CC(c2ccccc2)Cc2nc(N3CCN(c4ccccn4)CC3)ncc21 (stereo not drawn) | 624 |
| CN(Cc1ccccc1)C(=O)c1ccc(NC(=O)[C@H]2[C@@H]3C[C@@H]4[C@H]2C(=O)O[C@@H]4C3)cc1 | 775 |
| Cn1c(=O)c2cc(C(=O)NCc3ccccc3Cl)sc2n(C)c1=O | 795 |
| CCn1cc(C(=O)NCc2cccc(Br)c2)c2cccnc21 | 854 |
| O=C(NC1CCCC1)NC1CCN(C(=O)C2CC2)C1 (stereo not drawn) | 631 |
| O=C(c1ccc(F)cc1)N1c2nc(-c3ccccc3)nn2C2(CCCCC2)[C@@H]2CCCC[C@@H]21 | 576 |
| CCn1cc(C(=O)Nc2ccc(C)c(F)c2)c2cccnc21 | 920 |
| Cn1cc(CCNC(=O)Cc2ccccc2Cl)c2cccnc21 | 700 |
| CCC(Sc1nc2cc(OC)c(OC)cc2c2nc(C)nn12)C(=O)NCc1ccco1 (stereo not drawn) | 746 |
| CCNC(=O)C1CCN(C(=O)Nc2ccc(NC(=O)Nc3ccccc3F)cc2)CC1 | 686 |
| CCCc1cc(N2CCN(C(=O)c3ccco3)CC2)nc2nnc(C)n12 | 868 |
| O=C(NCc1ccccn1)c1cccc2c1CCN2C(=O)c1ccc(F)cc1 | 644 |
| Cc1ccc(CN2CCN(C3CCN(C(=O)Nc4ccc5c(c4)OCO5)CC3)C(=O)C2=O)cc1 | 696 |
| COc1ccc2c3c([nH]c2c1)[C@H](CC(C)C)N1C(=O)[C@H](CCC(=O)OC(C)(C)C)NC(=O)[C@@H]1C3 | 1100 |

More lines, now with the values ahead:

| RP-LC retention time [s] | Structure (SMILES) |
| --- | --- |
| 1020 | Cc1ccc(C)c(NC(=O)N2CCCC(C)(C(=O)NCc3ccccc3C)C2)c1 (stereo not drawn) |
| 1200 | CCN(C(=O)c1ccc2c(c1)OCO2)c1nc(-c2ccccc2)cs1 |
| 895 | Cc1ccc(NC(=O)N2C[C@@H](F)C[C@H]2C(=O)N2CCc3ccccc3C2)cc1Cl |
| 707 | CCCNc1cc(N2CCCC(CCC(=O)Nc3ccc(OC)cc3OC)C2)ncn1 (stereo not drawn) |
| 650 | COCCCNC(=O)N1CCN(Cc2nc3cccnc3n2-c2cc(C)cc(C)c2)CC1 |
| 880 | O=C(NCCC1=CCCCC1)C1CCN(Cc2cc3ccccc3n2Cc2ccccc2)CC1 |
| 1060 | COc1ccc(N(C(=O)Nc2ccccc2OC)C2=NCCC2)cc1Cl |
| 709 | COc1ccccc1N(Cc1nc2nc(C)cc(C)n2n1)C(=O)c1ccco1 |
| 668 | O=C(Cn1nc2c3cc(F)ccc3ncn2c1=O)Nc1ccc2c(c1)OCO2 |
| 927 | CC(C)C(=O)Nc1ccc(C2(C(=O)NCc3ccc(F)c(Cl)c3)CCC2)cc1 |
| 897 | O=C(Nc1c(-c2cccc(F)c2)nc2sc(N3CCCCC3)nn12)C1CC1 |
| 1060 | Cc1ccc(-c2cnc(N3CCCC(C(=O)NCc4ccc5c(c4)OCO5)C3)nc2)cc1 (stereo not drawn) |
| 589 | O=C(Cn1cnc2ccccc2c1=O)N[C@@H](C(=O)O)c1ccc(O)cc1 |
| 827 | CCC(=O)N1CCCc2ccc(NC(=O)c3cccs3)cc21 |
| 913 | COc1ccc(OCc2nnc3sc(C4COc5ccccc5O4)nn23)cc1 (stereo not drawn) |
| 803 | CC1CN(C2CCCCC2)c2nc3c(c(=O)n(CCCO)c(=O)n3C)n2C1 (stereo not drawn) |
| 859 | CC(C)CCNC(=O)CCCn1c(=O)c2cccn2c2ccccc21 |
| 842 | CCOC(=O)C1=C(C)NC(=O)NC1c1cn(-c2ccccc2)nc1-c1ccc(OC)cc1 (stereo not drawn) |
| 1060 | CCCN1C(=O)c2cc(S(=O)(=O)Nc3ccc(F)cc3)ccc2Oc2cccnc21 |

| RP-LC retention time [s] | Structure (SMILES) |
| --- | --- |
| 908 | CCC(=O)N(C1CCOCC1)C1CCN(S(=O)(=O)c2ccccc2CC)CC1 |
| 867 | Cn1c(=O)sc2cc(S(=O)(=O)N3CCC(C(=O)NCCCc4ccccc4)CC3)ccc21 |
| 1100 | CCCCCn1c(=O)c2ccccc2n(Cc2nc(-c3cccc(Cl)c3)no2)c1=O |
| 655 | CCC1CN2C=NC(N3CCN(C(=O)Nc4ccc(SC)cc4)CC3)=CC2=N1 (stereo not drawn) |
| 557 | O=C(NCCN1CCOCC1)c1ccc(-c2ccc(N3CCCCC3)nc2)cc1 |
| 939 | CC(C)NC(=O)N1CCCC(c2cccc(C(=O)NCc3ccc(OC(C)C)cc3)c2)C1 (stereo not drawn) |
| 808 | O=C(Nc1nc2ccccc2s1)C1CCN(C(=O)c2ccc(F)cc2)CC1 |
| 858 | CCOc1cccc(CNc2nccc(-n3nc(C)cc3C)n2)c1 |
| 830 | CCOc1ccccc1CNC(=O)CCc1nnc2c3cc(-c4ccc(F)cc4)nn3ccn12 |
| 676 | Cc1ccnc(NC(c2cccs2)c2ccc3cccnc3c2O)c1 (stereo not drawn) |
| 674 | O=C(c1ccco1)N1CCCC(c2cc(-c3ccc(F)cc3)n[nH]2)C1 (stereo not drawn) |
| 741 | COc1ccccc1-c1nc(-c2ccc3ncn(C(C)C)c3c2)no1 |
| 811 | CCOc1ccc(NC(=O)N(C)Cc2nc3ccccc3c(=O)n2CCOC)cc1 |
| 1260 | CCOc1ccc(-c2noc(CN3C(=O)COc4cc(C(C)(C)C)ccc43)n2)cc1 |
| 1010 | Cc1ccc(CNC(=O)C2CCCN(c3nc4ccsc4c(=O)n3Cc3ccc(F)cc3)C2)cc1 (stereo not drawn) |
| 1150 | Cc1cccc(NS(=O)(=O)c2cc(-c3cc(C(F)(F)F)on3)sc2C)c1 |
| 1060 | Cc1ccccc1S(=O)(=O)N1CCC(CCC(=O)N2CCc3ccccc3C2)CC1 |
| 724 | COc1cccc(OCC(O)CN2CCN(c3ccc(Cl)cc3)CC2)c1 (stereo not drawn) |
| 710 | CCc1cccc(C)c1Nc1c(-c2ccc(O)c(OC)c2)nc2nc(C)cc(C)n12 |
